Like-named read-outs stand apart in the source and are kept apart here.
Assays:
[1] = system: METH-stimulated locomotor activity; assay: METH-stimulated locomotor activity in rats; format: in vivo, rat; conditions: s.c.
Procedure: A series of VMAT2 inhibitors were synthesized and evaluated for their activity at VMAT2, dopamine transporters (DAT), and serotonin transporters (SERT) using rat striatum, hERG channels expressed by HEK-293 cells, and for their effect on METH-stimulated locomotor activity in rats.
The compounds of the invention were also evaluated for their effect on METH-stimulated locomotor activity in rats.

[2] = biological target: T1, VMAT2 (Rattus norvegicus, UniProt Q01827); assay: [3H]Dopamine ([3H]DA) uptake assay, vesicular preparation; format: biochemical
T1 construct: from tissue; host or cells: rat striatum, isolated synaptic vesicles
T1 sequence (Q01827 whole entry): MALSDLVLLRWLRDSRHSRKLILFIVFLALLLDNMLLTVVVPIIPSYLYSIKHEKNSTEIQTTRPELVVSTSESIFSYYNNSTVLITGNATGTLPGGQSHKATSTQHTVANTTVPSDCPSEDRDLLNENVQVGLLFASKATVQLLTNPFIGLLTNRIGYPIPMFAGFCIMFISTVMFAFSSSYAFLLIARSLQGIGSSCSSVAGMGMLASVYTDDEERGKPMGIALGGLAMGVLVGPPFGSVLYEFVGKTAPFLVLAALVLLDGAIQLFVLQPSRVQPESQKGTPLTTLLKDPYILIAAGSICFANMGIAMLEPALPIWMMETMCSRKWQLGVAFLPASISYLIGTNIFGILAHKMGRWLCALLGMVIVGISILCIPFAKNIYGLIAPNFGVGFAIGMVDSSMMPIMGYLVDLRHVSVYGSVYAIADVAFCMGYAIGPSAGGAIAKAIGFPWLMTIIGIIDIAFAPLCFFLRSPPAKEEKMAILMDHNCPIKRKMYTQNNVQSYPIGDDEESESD

[3] = both, 0.08 µM, pH 7.4
Procedure: (§1) Each plate holds triplicate samples of two controls (0.4 mM) and up to 14 compounds (0.08 mM) in rat and human liver microsomes. Aliquots of each well of the plate (175 μl of each well) were transferred from the master plate into 5 assay plates. […] NADPH regenerating system solution A (6.05 ml, Fisher Scientific, #NC9255727) was combined with NADPH regenerating system solution B (1.21 ml, Fisher Scientific, #NC9016235) in potassium phosphate buffer (15.8 ml, 0.1 M, pH 7.4, 37° C.). The resulting NADPH solution (43.8 μl) was added to each well of all the 96-well assay plates and mixed with pipette briefly making the final protein and compound concentrations respectively: 0.5 mg/ml, 0.08 μM (0.4 μM for controls). Plates were sealed, and all plates except the 0-hr plate were incubated at 37° C., shaken at a speed of 60 rpm. A single assay plate was tested at each time point: 0.5 hr, 1 hr, 2 hr, and 4 hr. At each time point, 437.5 μL of pre-cooled internal standard was added each well of the plate to quench the reaction. […] 120 μl supernatant was transferred to a 96-well plate, centrifuged again and analyzed by UPLC-MS (Waters Inc., Milford, MA). The compounds and internal standard were detected by selected ion recording (SIR).
(§2) The amount of material was measured as a ratio of peak area to the internal standard and graphed. Using the slope from the initial linear portion of this curve, the degradation rate constant is calculated using equation [1]. The rate constant was then used to calculate the compounds half-life in plasma using equation [2].

[4] = Microsomal assays, rat liver microsomes; conditions: for Microsomal stability assays: Species/Half-life (hr) Rat: rat liver microsomes; for CLint scaled at 0.08 µM / half-life at 0.08 µM: female, Sprague-Dawley, rat, pH 7.4
Procedure: as §1, §2

[5] = Microsomal assays, human liver microsomes; conditions: for Microsomal stability assays: Species/Half-life (hr) Human: human liver microsomes; for half-life at 0.08 µM: both, human, pH 7.4
Procedure: as §1, §2

[6] = female, Sprague-Dawley, 0.08 µM, pH 7.4
Procedure: as §1, §2

[7] = Pharmacokinetic assays in mice (iv, po, sc); format: in vivo
[8] = biological target: T2, hERG channel (Homo sapiens, UniProt Q12809); assay: [3H]Dofetilide binding assay, HEK-293 cell membrane preparation; conditions: hERG Binding: Mean Ki (nM)
T2 construct: purchased; host or cells: HEK-293 cells stably expressing hERG (membranes)
T2 sequence (Q12809 whole entry): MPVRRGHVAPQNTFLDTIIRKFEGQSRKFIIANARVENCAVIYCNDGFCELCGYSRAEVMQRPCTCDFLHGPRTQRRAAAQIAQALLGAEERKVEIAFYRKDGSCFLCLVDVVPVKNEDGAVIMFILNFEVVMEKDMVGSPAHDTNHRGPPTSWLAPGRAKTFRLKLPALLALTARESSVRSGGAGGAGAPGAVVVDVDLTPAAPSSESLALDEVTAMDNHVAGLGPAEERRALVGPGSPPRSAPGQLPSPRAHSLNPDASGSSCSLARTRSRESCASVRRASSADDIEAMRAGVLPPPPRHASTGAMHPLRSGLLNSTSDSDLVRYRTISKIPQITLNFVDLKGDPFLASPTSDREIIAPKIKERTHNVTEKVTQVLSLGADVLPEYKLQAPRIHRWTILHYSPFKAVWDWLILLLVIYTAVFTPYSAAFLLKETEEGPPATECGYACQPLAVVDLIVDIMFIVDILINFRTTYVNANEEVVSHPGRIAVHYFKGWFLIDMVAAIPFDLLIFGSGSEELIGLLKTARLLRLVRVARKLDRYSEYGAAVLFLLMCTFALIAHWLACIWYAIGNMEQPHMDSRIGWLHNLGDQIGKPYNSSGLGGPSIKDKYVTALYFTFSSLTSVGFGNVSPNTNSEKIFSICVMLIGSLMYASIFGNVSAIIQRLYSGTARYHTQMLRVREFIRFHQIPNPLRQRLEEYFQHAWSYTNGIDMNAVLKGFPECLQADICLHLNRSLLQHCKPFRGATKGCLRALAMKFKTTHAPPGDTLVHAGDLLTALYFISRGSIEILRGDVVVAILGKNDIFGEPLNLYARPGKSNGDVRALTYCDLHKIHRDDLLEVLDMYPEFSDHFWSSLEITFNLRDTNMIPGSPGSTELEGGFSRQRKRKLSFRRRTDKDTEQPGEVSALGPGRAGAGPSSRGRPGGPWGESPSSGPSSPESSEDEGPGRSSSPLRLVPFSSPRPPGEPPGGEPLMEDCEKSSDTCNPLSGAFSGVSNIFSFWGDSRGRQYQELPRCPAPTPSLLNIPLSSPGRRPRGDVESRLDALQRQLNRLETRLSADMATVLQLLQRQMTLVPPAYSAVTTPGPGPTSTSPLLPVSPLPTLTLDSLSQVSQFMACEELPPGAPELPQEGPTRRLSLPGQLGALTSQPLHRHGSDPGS
Procedure: Membranes were suspended in assay buffer (50 mM Tris, 10 mM KCl, 1 mM MgCl2, pH 7.4) prior to the experiment. […] Nonspecific binding was determined in the presence of amitriptyline (1 mM). Samples were incubated for 1 hr. at 24° C., followed by rapid filtration.

[9] = Pharmacokinetic assays in rats (iv, po, sc); conditions: for Bioavail. (F %) Frat / bioavailability: rat; for bioavailability: male, Sprague-Dawley, in vivo
Procedure: (§3) Animals: Oral and intravenous dose pharmacokinetic studies were conducted in tandem in age matched female Swiss Webster mice and/or age matched male Sprague-Dawley rats purchased from Envigo-Harlan. Animals were housed in IVC cages with wood chip bedding and given food and water ad libitum.
(§4) Dose Formulation and Administration Volumes: Hydrochloric acid salts or free base forms were used for formulation.
(§5) Pharmacokinetic Studies: Groups of 6 animals were dosed with formulated test compound by bolus lateral tail vein injection (iv), by oral gavage (po), or by subcutaneous injection (sc) into left hind flank. […] Whole blood samples were collected into microtubes and centrifuged at 4000×g for 2 min. Plasma supernatants were collected and immediately frozen on dry ice, then transferred to a −80° C. freezer to await processing for LC-MS/MS analysis. Typical dose rates were 2 mg/kg iv, 10 mg/kg po, and <30 mg/kg sc.
(§6) Plasma calibrators (usually 0.25, 0.5, 1, 5, 15, 30, 100, 400, 700, and 1000 ng/mL) were generated by the addition of 5 μL of appropriate spiking solution into 100 μL blank plasma followed by vortex mixing. Plasma QC samples (usually 0.75, 25, 500, and 850 ng/mL) were prepared in a similar manner using an independent 2nd analyte stock solution. Calibrators and QCs were stored alongside experimental samples at −80° C. until analysis.
(§7) Analyte and internal standard contained in 5 μL sample injections (15° C. temp.; 1.5 mL 0.1% formic acid in MeOH or 1:1 MeOH: isopropanol injector rinse; 10 sec rinse dip time) were eluted from a guard-protected (2.7 μL, 3×5 mm) Agilent Poroshell 120 EC-C18 (2.7 μL, 3×50 mm; oven temp. 40° C.) analytical column with a 0.1% formic acid in water (mobile Phase-A): 0.1% formic acid in acetonitrile (mobile Phase-B) gradient. […] Positive-mode ESI Turbo V® source and MS gas, temperature, and probe settings were optimized for 0.4 mL flow rate at CUR=35/ISV=4500/TEM=550/GS1=65/GS2=65/CAD=10 with the probe position=7/0.5 horizontal/vertical. […] ISTD voltage potentials were set at DP=70, EP=10, CE=35 and CXP=6. Sample sequences consisted of single randomized experimental sample injections flanked by sets of blanks, calibrators and QCs with QCs interspersed, as needed, to maintain >5% total QC to experimental sample occurrence. High QCs (5,000 and 10,000 ng/mL) were inserted at end of sequence prior to second calibrator injections. Calibration curves were typically constructed by weighted (1/x^2) non-linear regression analysis of analyte/ISTD concentration ratios to analyte/ISTD peak area ratios using AB SciexMultiQuant software (Ver 3.0.31721.0).

[10] = biological target: dopamine transporter (DAT) (Rattus norvegicus, UniProt P23977); assay: [3H]DA uptake assay, synaptosomal preparation
Sequence of dopamine transporter (DAT) (P23977 whole entry): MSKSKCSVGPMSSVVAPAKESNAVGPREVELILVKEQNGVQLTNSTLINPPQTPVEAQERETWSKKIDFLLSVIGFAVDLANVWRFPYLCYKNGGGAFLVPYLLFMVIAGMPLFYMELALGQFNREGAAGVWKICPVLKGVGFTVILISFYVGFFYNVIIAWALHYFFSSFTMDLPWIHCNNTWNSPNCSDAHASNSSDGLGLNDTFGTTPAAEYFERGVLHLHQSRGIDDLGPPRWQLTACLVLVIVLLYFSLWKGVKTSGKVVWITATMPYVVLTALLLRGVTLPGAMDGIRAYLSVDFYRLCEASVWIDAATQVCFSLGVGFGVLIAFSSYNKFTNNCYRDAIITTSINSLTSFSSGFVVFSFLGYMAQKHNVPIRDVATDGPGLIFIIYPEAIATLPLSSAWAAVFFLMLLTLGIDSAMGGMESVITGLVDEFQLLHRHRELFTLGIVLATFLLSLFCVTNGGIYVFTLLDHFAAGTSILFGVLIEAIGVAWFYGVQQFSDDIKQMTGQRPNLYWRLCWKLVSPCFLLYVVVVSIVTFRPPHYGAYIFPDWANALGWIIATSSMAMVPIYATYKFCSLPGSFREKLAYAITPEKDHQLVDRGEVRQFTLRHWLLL
Procedure: [^3H]DA and [3H]5-HT uptake into striatal synaptosomes was determined to evaluate compound inhibition of the dopamine transporter (DAT) and the serotonin transporter (SERT), respectively. […] Assays were performed in duplicate in a total volume of 500 μL (for DAT assays) or 250 μL (for SERT assays). Aliquots of the synaptosomal suspension (25 μL for DAT, 50 μL for SERT) were added to tubes containing assay buffer and various concentrations of analog (1 nM-100 μM), and incubated at 34° C. for 5 min. Nonspecific uptake was determined in the presence of nomifensine (10 μM) for DAT assays or fluoxetine (10 μM) for SERT assays. […] Samples were placed on ice, and 50 μL of 0.1 μM [^3H]DA (for DAT assays) or 25 μL of 0.1 μM [^3H]5-HT (for SERT assays) was added to each tube, and incubated for 10 min at 34° C. Reactions were terminated by addition of 3 mL of ice-cold assay buffer and subsequent filtration and radioactivity retained by the filters was determined by liquid scintillation spectrometry (Tri-Carb 2100TR liquid scintillation analyzer; PerkinElmer Life and Analytical Sciences, Boston, MA).

[11] = in vivo; conditions: male, Sprague-Dawley, rat
Procedure: as §3, §4, §5, §6, §7

[12] = in vitro; conditions: female, Sprague-Dawley, rat, pH 7.4
Procedure: as §1, §2

[13] = in vitro; conditions: both, human, pH 7.4
Procedure: as §1, §2

[14] = system: rat striatal slices; conditions: cited from earlier work
[15] = system: METH self-administration; conditions: in vivo; cited from earlier work
[16] = [3H]DA uptake, rat vesicular preparation, mean of n>=3 unless N given, read-out: VMAT2 (rat) Inhibition: Mean Ki
[17] = [3H]dofetilide binding, HEK-293 membranes, mean of n>=3 unless N given

COc1ccc(CCCN[C@H](C)Cc2ccccc2)cc1.Cl [Compound 9]
METH-stimulated locomotor activity ([1]; 3 mg/kg): significant reduction

COc1ccc(CCCN[C@@H](C)Cc2ccccc2)cc1.Cl [Compound 10, (S)-3-(4-methoxyphenyl)-N-(1-phenylpropan-2-yl)propan-1-amine]
METH-stimulated locomotor activity ([1]; 17 mg/kg): significant reduction

FCC(Cc1ccc(-c2cncnc2)cc1)NCCCc1ccc(F)cc1 (stereo not drawn) [Compound 68]
Ki [2]: 5 nM | Microsomal stability assays: Species/Half-life (hr) Human [3]: 0.1 h

O=[N+]([O-])c1ccc(CCCNC(CF)Cc2ccc(F)cc2)cc1 (stereo not drawn) [Compound 123]
Ki [2, 16]: 44 nM | Microsomal stability assays: Species/Half-life (hr) Rat [4]: 0.4 h | Microsomal stability assays: Species/Half-life (hr) Human [5]: 1.2 h

OCC(Cc1ccc(F)cc1)NCCCc1ccc(Br)cc1 (stereo not drawn) [Compound 154]
Microsomal stability assays: Species/Half-life (hr) Rat [6]: 0.1 h

CC(Cc1ccc(F)cc1)NCCCc1ccncc1 (stereo not drawn) [Compound 176]
Bioavail. (F %) Fmice [7]: Fmice: ~22% (prelim rat done) | Ki [8, 17]: 5100 nM

CC(Cc1ccncc1)NCCCc1ccc(F)cc1 (stereo not drawn) [Compound 187]
Bioavail. (F %) Fmice [7]: Fmice: 9.4% | half-life at 0.08 µM [5]: > 240 min

CC(Cc1ccc(F)cc1)NCCCc1ccc(F)cc1 (stereo not drawn) [Compound 190]
Bioavail. (F %) Fmice [7]: Fmice: 5% | Ki [2]: 9 nM

CC(Cc1ccc(-c2cccnc2)cc1)NCCCc1ccc(F)cc1 (stereo not drawn) [Compound 192]
Bioavail. (F %) Fmice [7]: Fmice: 6.7%

CC(Cc1ccccc1)NCCCc1ccc(C(F)(F)F)cc1 (stereo not drawn) [Compound 194]
Bioavail. (F %) Fmice [7]: Fmice: 11.9%

CC(Cc1ccc(-c2cncnc2)cc1)NCCCc1ccc(F)cc1 (stereo not drawn) [Compound 196]
Bioavail. (F %) Fmice [7]: Fmice: 3.4% (prelim rat done) | Ki [2]: 8 nM

CC(Cc1ccccc1)NCCCc1ccncc1 (stereo not drawn) [Compound 204]
Bioavail. (F %) Fmice [7]: Fmice: 10% (prelim rat done)

CCC(Cc1ccccc1)NCCCc1ccc(O)cc1 (stereo not drawn) [Compound 207]
Microsomal stability assays: Species/Half-life (hr) Rat [4]: Rat: 0.1 hr Human: 0.1 hr | Microsomal stability assays: Species/Half-life (hr) Human [5]: Rat: 0.1 hr Human: 0.1 hr

CC(Cc1ccc(C(F)(F)F)cc1)NCCCc1ccc(O)cc1 (stereo not drawn) [Compound 209]
Microsomal stability assays: Species/Half-life (hr) Rat [4]: 0.2 h | Microsomal stability assays: Species/Half-life (hr) Human [5]: 0.1 h

CC(Cc1ccccc1)NCCCc1ccc(S)cc1 (stereo not drawn) [Compound 216]
Bioavail. (F %) Fmice [7]: Fmice: 0.9% | Microsomal stability assays: Species/Half-life (hr) Rat ([4]; cell prints %): Rat: 0.3%

CC(Cc1ccccc1)NCCCc1ccc(N)cc1 (stereo not drawn) [Compound 220]
Bioavail. (F %) Frat [9]: Fmice: quant; Frat: quant | Bioavail. (F %) Fmice [7]: Fmice: quant; Frat: quant

CC(Cc1ccccc1)NCCCc1ccc(O)cc1 (stereo not drawn) [Compound 223]
Bioavail. (F %) Fmice [7]: Fmice: 8.9%

CC(Cc1ccc(F)c(F)c1)NCCCc1ccc2nonc2c1 (stereo not drawn) [Compound 227]
Bioavail. (F %) ([9]; species not given): No detection | Ki [2]: 49 nM | Ki [8, 17]: 650 nM

CC(Cc1ccc(F)c(F)c1)NCCCc1ccc2nc[nH]c2c1 (stereo not drawn) [Compound 228]
bioavailability ([9]; po, 10 mg/kg): 6% | Bioavail. (F %) Frat [9]: Frat: 5% | Ki [10]: 3040 nM | Ki [2]: 41 nM | CLint scaled at 0.08 µM [4]: 48 mL/min/kg | Ki ([8]; Table 4, mean, minimally n = 3): 6770 nM | Ki [8, 17]: 6770 nM

CC(Cc1ccc(F)c(F)c1)NCCCc1ccc(NC(N)=O)cc1 (stereo not drawn) [Compound 229]
Bioavail. (F %) Frat [9]: Frat: 22% | Ki [10]: 1530 nM | Ki [2]: 36 nM | CLint scaled at 0.08 µM [4]: 41 mL/min/kg | Ki ([8]; Table 4, mean, minimally n = 3): 4290 nM | Ki [8, 17]: 4290 nM | bioavailability ([11]; po): 94%

CC(Cc1ccc(F)c(F)c1)NCCCc1ccc(S(N)(=O)=O)cc1 (stereo not drawn) [Compound 230]
Bioavail. (F %) Frat [9]: Frat: >100% | Ki [10]: 8240 nM | Ki [2]: 42 nM | CLint scaled at 0.08 µM [4]: < 17 mL/min/kg | Ki ([8]; Table 4, mean, minimally n = 3): 1030 nM | Ki [8, 17]: 1030 nM | bioavailability ([11]; po): 94% | bioavailability ([11]; sc): 44%

CC(Cc1ccc(F)c(F)c1)NCCCc1ccc(C(N)=O)cc1 (stereo not drawn) [Compound 231]
bioavailability ([9]; po, 10 mg/kg): 62% | bioavailability ([9]; sc): 84% | Bioavail. (F %) Frat [9]: Frat: 80% | Ki [10]: 2750 nM | Ki [2, 16]: 29 nM | CLint scaled at 0.08 µM [4]: 23 mL/min/kg | Ki ([8]; Table 4, mean, minimally n = 3): 3500 nM | Ki [8, 17]: 3500 nM

CC(Cc1ccc(F)c(F)c1)NCCCc1cccc(NC(N)=O)c1 (stereo not drawn) [Compound 235]
Ki [10]: 1290 nM | Ki [2]: 4 nM | CLint scaled at 0.08 µM [4]: 71 mL/min/kg | Ki ([8]; Table 4, mean, minimally n = 3): 4380 nM | Ki [8, 17]: 4380 nM | bioavailability ([11]; po): 8%

CC(Cc1ccc(F)c(F)c1)NCCCc1cccc(C(N)=O)c1 (stereo not drawn) [Compound 237]
bioavailability ([9]; po, 10 mg/kg): 2% | Ki [10]: 3120 nM | Ki [2, 16]: 32 nM | CLint scaled at 0.08 µM [4]: 30 mL/min/kg | Ki ([8]; Table 4, mean, minimally n = 3): 4780 nM | Ki [8, 17]: 4780 nM

CC(Cc1ccccc1)NCCCc1ccc(F)cc1 (stereo not drawn) [Compound 249]
Bioavail. (F %) Fmice [7]: Fmice: 2.0% | Ki [2]: 6 nM | half-life at 0.08 µM [4]: 18 min | Ki [8, 17]: 3000 nM | half-life at 0.08 µM [5]: 72 min

CC(Cc1ccccc1)NCCCc1ccc(OC(F)(F)F)cc1 (stereo not drawn) [Compound 258]
Ki [2]: 16 nM | Ki [8, 17]: 90 nM | half-life at 0.08 µM [5]: > 240 min

CC(Cc1ccccc1)NCCCc1ccc(S)cc1 (stereo not drawn) [Compound 260]
Bioavail. (F %) Fmice [7]: Fmice: 0.9%

CC(Cc1ccc(F)cc1)NCCCc1ccc(CN)cc1 (stereo not drawn) [Compound 285]
Ki [2]: 461 nM | half-life at 0.08 µM [4]: > 240 min | half-life at 0.08 µM [5]: > 240 min

Fc1ccc(CCCNC(Cc2ccccc2)Cc2ccccc2)cc1 [Compound 292]
half-life at 0.08 µM [12]: < 6 min | Ki [2]: 346 nM | half-life at 0.08 µM [13]: 36 min

CC(Cc1ccc(F)cc1)NC(=O)CCc1ccc([N+](=O)[O-])cc1 (stereo not drawn) [Compound 293]
half-life at 0.08 µM [12]: 30 min | Ki [2]: 10800 nM | half-life at 0.08 µM [13]: 24 min

CC(Cc1ccc(F)cc1)NC(=O)CCc1ccc(C#N)cc1 (stereo not drawn) [Compound 294]
Ki [2]: 40600 nM | half-life at 0.08 µM [4]: 48 min | half-life at 0.08 µM [5]: 48 min

CC(Cc1cccc(NC(N)=O)c1)NCCCc1ccc(F)cc1 (stereo not drawn) [Compound 306]
Ki [10]: 2970 nM | Ki [2]: 9 nM | CLint scaled at 0.08 µM [4]: 47 mL/min/kg | Ki ([8]; Table 4, mean, minimally n = 3): 2750 nM

CC(Cc1ccc2nccnc2c1)NCCCc1ccc(C(N)=O)cc1 (stereo not drawn) [Compound 307]
Ki [10]: 8890 nM | Ki [2]: 17 nM | CLint scaled at 0.08 µM [4]: 51 mL/min/kg | Ki ([8]; Table 4, mean, minimally n = 3): 21000 nM | bioavailability ([11]; po): 8% | bioavailability ([11]; sc): > 100%

CC(Cc1ccc2nccnc2c1)NCCCc1ccc(F)cc1 (stereo not drawn) [Compound 308]
Ki [10]: 2930 nM | Ki [2]: 13 nM | CLint scaled at 0.08 µM [4]: 56 mL/min/kg | Ki ([8]; Table 4, mean, minimally n = 3): 1900 nM

CC(Cc1cccc(F)c1)NCCCc1ccc(C(N)=O)cc1 (stereo not drawn) [Compound 309]
bioavailability ([9]; po, 10 mg/kg): 5% | bioavailability ([9]; sc): 76% | Ki [10]: 1630 nM | Ki ([2]; Table 4, mean, minimally n = 3, read-out: VMAT2 (rat) Inhibition: Mean Ki): 6 nM | CLint scaled at 0.08 µM [4]: 57 mL/min/kg | Ki ([8]; Table 4, mean, minimally n = 3): 12000 nM

CC(Cc1cccc(N)c1)NCCCc1ccc(F)cc1 (stereo not drawn) [Compound 310]
Ki [10]: 2230 nM | Ki [2]: 5 nM | CLint scaled at 0.08 µM [4]: 74 mL/min/kg | Ki ([8]; Table 4, mean, minimally n = 3): 2730 nM

CC(Cc1ccc(F)c(F)c1)NCCCc1ccc2cnoc2c1 (stereo not drawn) [Compound 311]
Ki [10]: 2720 nM | Ki [2]: 51 nM | CLint scaled at 0.08 µM [4]: 117 mL/min/kg | Ki ([8]; Table 4, mean, minimally n = 3): 4200 nM

CC(Cc1ccc(F)c(F)c1)NCCCc1ccc2nn[nH]c2c1 (stereo not drawn) [Compound 312]
bioavailability ([9]; po, 10 mg/kg): 7% | bioavailability ([9]; sc): 42% | Ki [10]: 1900 nM | Ki [2]: 8 nM | CLint scaled at 0.08 µM [4]: 115 mL/min/kg | Ki ([8]; Table 4, mean, minimally n = 3): 3000 nM

COc1ccc(CCCN[C@@H](C)Cc2ccccc2)cc1 [Compound 313]
Bioavail. (F %) Frat ([9]; route not stated): Frat: 3.4% | Ki [2]: 72 nM | CLint scaled at 0.08 µM [4]: 978 mL/min/kg | half-life at 0.08 µM [4]: < 6 min | Ki ([8]; Table 4, mean, minimally n = 3): 4160 nM

CN1[C@@H](CCc2ccccc2)CCC[C@H]1CCc1ccccc1 [Lobelane]
METH-evoked DA overflow [14]: decreases METH-evoked DA overflow | METH self-administration [15]: decreases METH self-administration

From patent US12637410B2, “Vesicular monoamine transporter-2 ligands and their use in the treatment of psychostimulant abuse” (priority 2016, dated 2026)
